Assays:
[1] = tested on: L02; experiment: Induction of apoptosis in human L02 cells assessed as early apoptotic cells at 200 nM after 72 hrs by annexin V-FITC/propidium iodide staining-based flow cytometric method (reference value: 2%); assay type: cell-based; conditions: l02, 72 h, 0.2 µM
[2] = tested on: A549; experiment: Cell cycle arrest in human A549 cells assessed as accumulation at G0/G1 phase at 10 nM after 72 hrs by propidium iodide staining-based flow cytometric method (reference value: 61.29%); assay type: functional
[3] = tested on: A549; experiment: Induction of apoptosis in human A549 cells assessed as late apoptotic cells at 10 nM after 72 hrs by annexin V-FITC/propidium iodide staining-based flow cytometric method (reference value: 4.1%); assay type: functional
[4] = tested on: A549; experiment: Cell cycle arrest in human A549 cells assessed as accumulation at S phase at 5 nM after 72 hrs by propidium iodide staining-based flow cytometric method (reference value: 24.48%); assay type: functional
[5] = tested on: L02; experiment: Induction of apoptosis in human L02 cells assessed as necrotic cells at 10 nM after 72 hrs by annexin V-FITC/propidium iodide staining-based flow cytometric method (reference value: 0%); assay type: cell-based; conditions: l02, 72 h, 0.01 µM
[6] = tested on: A549; experiment: Induction of apoptosis in human A549 cells assessed as late apoptotic cells at 100 nM after 72 hrs by annexin V-FITC/propidium iodide staining-based flow cytometric method (reference value: 4.1%); assay type: functional
[7] = tested on: L02; experiment: Cell cycle arrest in human L02 cells assessed as accumulation at G0/G1 phase at 5 nM after 72 hrs by propidium iodide staining-based flow cytometric method (reference value: 57.34%); assay type: ADME; conditions: l02, 72 h, 0.005 µM
[8] = tested on: L02; experiment: Cell cycle arrest in human L02 cells assessed as accumulation at G0/G1 phase at 10 nM after 72 hrs by propidium iodide staining-based flow cytometric method (reference value: 57.34%); assay type: ADME; conditions: l02, 72 h, 0.01 µM
[9] = tested on: L02; experiment: Cell cycle arrest in human L02 cells assessed as accumulation at G2/M phase at 5 nM after 72 hrs by propidium iodide staining-based flow cytometric method (reference value: 16.88%); assay type: ADME; conditions: l02, 72 h, 0.005 µM
[10] = tested on: L02; experiment: Cell cycle arrest in human L02 cells assessed as accumulation at G2/M phase at 10 nM after 72 hrs by propidium iodide staining-based flow cytometric method (reference value: 16.88%); assay type: ADME; conditions: l02, 72 h, 0.01 µM
[11] = tested on: HepG2; experiment: Cytotoxicity against human HepG2 cells assessed as growth inhibition after 72 hrs by MTT assay; assay type: functional, cell-based; conditions: HepG2, 72 h
[12] = tested on: A549; experiment: Cell cycle arrest in human A549 cells assessed as accumulation at G0/G1 phase at 5 nM after 72 hrs by propidium iodide staining-based flow cytometric method (reference value: 61.29%); assay type: functional
[13] = tested on: A549; experiment: Induction of apoptosis in human A549 cells assessed as late apoptotic cells at 200 nM after 72 hrs by annexin V-FITC/propidium iodide staining-based flow cytometric method (reference value: 4.1%); assay type: functional
[14] = tested on: A549; experiment: Induction of apoptosis in human A549 cells assessed as necrotic cells at 10 nM after 72 hrs by annexin V-FITC/propidium iodide staining-based flow cytometric method (reference value: 0.1%); assay type: functional
[15] = tested on: L02; experiment: Induction of apoptosis in human L02 cells assessed as early apoptotic cells at 10 nM after 72 hrs by annexin V-FITC/propidium iodide staining-based flow cytometric method (reference value: 2%); assay type: cell-based; conditions: l02, 72 h, 0.01 µM
[16] = tested on: A549; experiment: Induction of apoptosis in human A549 cells assessed as viable cells at 10 nM after 72 hrs by annexin V-FITC/propidium iodide staining-based flow cytometric method (reference value: 92.8%); assay type: functional; conditions: A549, 72 h, read-out: Activity
[17] = tested on: A549; experiment: Induction of apoptosis in human A549 cells after 72 hrs by annexin V-FITC/propidium iodide staining-based flow cytometric method; assay type: functional, cell-based
[18] = tested on: L02; experiment: Cell cycle arrest in human L02 cells assessed as accumulation at G0/G1 phase at 100 nM after 72 hrs by propidium iodide staining-based flow cytometric method (reference value: 57.34%); assay type: ADME; conditions: l02, 72 h, 0.1 µM
[19] = tested on: L02; experiment: Induction of morphological changes in human L02 cells at 10 to 30 nM after 72 hrs by DAPI staining-based fluorescence microscopic method; assay type: cell-based; conditions: l02, 72 h, 0.03 µM
[20] = tested on: A549; experiment: Induction of apoptosis in human A549 cells assessed as early apoptotic cells at 200 nM after 72 hrs by annexin V-FITC/propidium iodide staining-based flow cytometric method (reference value: 3%); assay type: functional
[21] = tested on: L02; experiment: Induction of apoptosis in human L02 cells assessed as necrotic cells at 200 nM after 72 hrs by annexin V-FITC/propidium iodide staining-based flow cytometric method (reference value: 0%); assay type: cell-based; conditions: l02, 72 h, 0.2 µM
[22] = tested on: L02; experiment: Cell cycle arrest in human L02 cells assessed as accumulation at G2/M phase at 100 nM after 72 hrs by propidium iodide staining-based flow cytometric method (reference value: 16.88%); assay type: ADME; conditions: l02, 72 h, 0.1 µM
[23] = Induction of apoptosis in human L02 cells assessed as viable cells at 100 nM after 72 hrs by annexin V-FITC/propidium iodide staining-based flow cytometric method (reference value: 96.3%); assay type: cell-based; conditions: read-out: Activity
[24] = tested on: A549; experiment: Cell cycle arrest in human A549 cells assessed as accumulation at G2/M phase at 10 nM after 72 hrs by propidium iodide staining-based flow cytometric method (reference value: 14.23%); assay type: functional
[25] = tested on: L02; experiment: Cell cycle arrest in human L02 cells assessed as accumulation at S phase at 10 nM after 72 hrs by propidium iodide staining-based flow cytometric method (reference value: 25.78%); assay type: ADME; conditions: l02, 72 h, 0.01 µM
[26] = tested on: L02; experiment: Induction of apoptosis in human L02 cells assessed as late apoptotic cells at 200 nM after 72 hrs by annexin V-FITC/propidium iodide staining-based flow cytometric method (reference value: 1.6%); assay type: cell-based; conditions: l02, 72 h, 0.2 µM
[27] = tested on: A549; experiment: Cell cycle arrest in human A549 cells assessed as accumulation at G0/G1 phase at 100 nM after 72 hrs by propidium iodide staining-based flow cytometric method (reference value: 61.29%); assay type: functional
[28] = Induction of apoptosis in human L02 cells assessed as viable cells at 200 nM after 72 hrs by annexin V-FITC/propidium iodide staining-based flow cytometric method (reference value: 96.3%); assay type: cell-based; conditions: read-out: Activity
[29] = tested on: A549; experiment: Induction of apoptosis in human A549 cells assessed as necrotic cells at 200 nM after 72 hrs by annexin V-FITC/propidium iodide staining-based flow cytometric method (reference value: 0.1%); assay type: functional
[30] = tested on: A549; experiment: Cell cycle arrest in human A549 cells assessed as accumulation at G2/M phase at 5 nM after 72 hrs by propidium iodide staining-based flow cytometric method (reference value: 14.23%); assay type: functional
[31] = tested on: L02; experiment: Cell cycle arrest in human L02 cells assessed as accumulation at S phase at 100 nM after 72 hrs by propidium iodide staining-based flow cytometric method (reference value: 25.78%); assay type: ADME; conditions: l02, 72 h, 0.1 µM
[32] = tested on: A549; experiment: Cell cycle arrest in human A549 cells assessed as accumulation at G2/M phase at 100 nM after 72 hrs by propidium iodide staining-based flow cytometric method (reference value: 14.23%); assay type: functional
[33] = tested on: A549; experiment: Cell cycle arrest in human A549 cells assessed as accumulation at S phase at 100 nM after 72 hrs by propidium iodide staining-based flow cytometric method (reference value: 24.48%); assay type: functional
[34] = tested on: L02; experiment: Induction of apoptosis in human L02 cells assessed as early apoptotic cells at 100 nM after 72 hrs by annexin V-FITC/propidium iodide staining-based flow cytometric method (reference value: 2%); assay type: cell-based; conditions: l02, 72 h, 0.1 µM

COc1cc([C@@H]2c3cc4c(cc3[C@H](OC(=O)CN(C)C(=O)OC(C)(C)C)[C@H]3COC(=O)[C@H]23)OCO4)cc(OC)c1OC gave an Activity [1] of 65%, an Activity [2] of 59.2% and an Activity [3] of 8.1%. It also gave an Activity [4] of 26.07%, an Activity [5] of 0% and an Activity [6] of 3%. It also gave an Activity [7] of 62.19%, an Activity [8] of 62.3% and an Activity [9] of 13.77%. It also gave an Activity [10] of 13.11%, an IC50 [11] of 96.4 nM and an Activity [12] of 60.2%. For the same compound, the Activity [13] was 2.1%, the Activity [14] was 0% and the Activity [15] was 4.3%. For the same compound, the viability at 0.01 µM [16] was 87.8%, the Activity [17] was “Dose-dependent effect” and the Activity [18] was 67.29%. For the same compound, the Activity [19] was “Non-Toxic”, the Activity [20] was 92.8% and the Activity [21] was 0.1%. It also gave an Activity [22] of 13.78%, a viability at 72 h, 0.1 µM [23] of 87.3% and an Activity [24] of 13.54%. For the same compound, the Activity [25] was 24.59%, the Activity [26] was 3.1% and the Activity [27] was 36.73%. It also gave a viability at 72 h, 0.2 µM [28] of 31.8%, an Activity [29] of 0% and an Activity [30] of 13.74%. For the same compound, the Activity [31] was 18.93%, the Activity [32] was 17.14% and the Activity [33] was 47.13%. For the same compound, the Activity [34] was 10.6%.
